Source: patent US8999935B2, “Treatment of osteoporosis in peri- and post-menopausal women with hepcidin” (New York University, priority 2009, dated 2015)

Legend:
MCF-7 cells = experiment: VEGF formation in MCF-7 cell cultures; assay type: cell-based; conditions: 24-hr treatment
From the text: Due to the deficit of appropriate animal models that recapitulate estrogen and iron conditions in vivo, and the inherent difficulty of eliminating confounding variables with study in human subjects, applicants developed two cell culture models to test whether increase in body iron contributes to menopausal symptoms and diseases (FIG. 4). The concentration of 17β-estradiol (E2) were set at levels equivalent to breast tissue levels under pre-menopausal conditions (Parl F. F., “Estrogens, Estrogen Receptor and Breast Cancer,” Oxford: IOS Press, (2000), which is hereby incorporated by reference in its entirety). Ferritin levels were equal to 10% serum, given that the physiological upper limit of serum ferritin is 200 ng/ml. Twenty ng/ml of ferritin was used in the culture media. Transferrin was added in its wholly unsaturated form (apo-transferrin), or its fully 100% iron saturated (holo-transferrin), at 5 μg/ml, to the pre- and post-menopausal conditions, respectively. Serum-free alpha minimum essential medium (α-MEM) was used as the base medium for breast cancer MCF-7 cells, osteoblast progenitor C2C12 cells, and osteoclast progenitor Raw 264.7 cells. MCF-7 was supplemented with selenium (5 ng/ml) and insulin (5 μg/ml). C2C12 and Raw 264.7 cells were supplemented with bone morphorgenetic protein-2 (BMP-2) and receptor activator of nuclear factor kappa B ligand (RANKL) to stimulate their differentiation and maturation to ostoeblasts and osteoclasts, respectively. Epilife® basal medium was used for the culture of primary normal human epidermal keratinocytes (NHEK) cells.
E2, transferrin, and ferritin were analyzed separately in MCF-7 cell cultures to determine their relative contribution to alterations in VEGF levels.

C2C12 cells = experiment: C2C12 cell proliferation; assay type: cell-based, mouse; conditions: 3 and 5 days
Method: To investigate whether increased iron levels affect the balance between bone formation and bone resorption, mouse osteoblasts C2C12 and osteoclasts Raw 264.7 cells were cultured in the two distinct media. […] In other experiments, the iron chelator deferoxamine (DFO), promoted alkaline phosphatase production, whereas ferritin diminished it. […] To further search how increased iron affect osteoblasts, C2C12 cells were grown in the presence of E2 or iron over a period of 3 and 5 days. Cell proliferation was then measured.

[1] = system: mouse osteoblast C2C12 cells; experiment: Alkaline phosphatase (osteoblast differentiation) in C2C12 cells; assay type: cell-based
Method: FIGS. 18A-F show differences in alkaline phosphates (ALP) activities in mouse osteoblast C2C12 cells grown in medium only (FIG. 18A), with bone morphorgenetic protein-2 (BMP-2) (FIG. 18B), under the pre-menopausal (FIG. 18C), post-menopausal (FIG. 18D), with ferritin (FIG. 18E), and with deferoxamine (DFO) (FIG. 18F). DFO, an iron chelator, (10 μM) or ferritin alone (20 ng/mL) was used in the presence of BMP-2 at 50 ng/ml.
Due to the deficit of appropriate animal models that recapitulate estrogen and iron conditions in vivo, and the inherent difficulty of eliminating confounding variables with study in human subjects, applicants developed two cell culture models to test whether increase in body iron contributes to menopausal symptoms and diseases (FIG. 4). The concentration of 17β-estradiol (E2) were set at levels equivalent to breast tissue levels under pre-menopausal conditions (Parl F. F., “Estrogens, Estrogen Receptor and Breast Cancer,” Oxford: IOS Press, (2000), which is hereby incorporated by reference in its entirety). Ferritin levels were equal to 10% serum, given that the physiological upper limit of serum ferritin is 200 ng/ml. […]
To investigate whether increased iron levels affect the balance between bone formation and bone resorption, mouse osteoblasts C2C12 and osteoclasts Raw 264.7 cells were cultured in the two distinct media. […] Cell proliferation was then measured.

[2] = mice, single 50 μg intraperitoneal injection, for 3 days; cited from earlier work
[3] = Effects of hepcidin on mice: serum iron and transferrin saturation after 8 weeks of i.p. treatment; assay type: in vivo; conditions: 1.5 mg/kg i.p. twice a week for 8 weeks, versus control mice or mice treated with DFO
Method: Human body has many ways to absorb, transfer, and store iron but has no effective ways to excrete it (Andrews N. C., “Disorders of Iron Metabolism,” N Engl J Med 341:1986-95 (1999), which is hereby incorporated by reference in its entirety). Menstruation, which can get rid of iron in young premenopausal women, is not optional in older postmenopausal women. Therefore, hepcidin and deferoxamine (DFO), a FDA-approved iron chelator, were tested to see whether hepcidin or DFO can inhibit iron absorption and decrease body iron levels. After overnight fasting, mice were injected intra-peritoneally (i.p.), twice a week, with hepcidin at 1.5 mg/kg, DFO at 400 mg/kg, or saline (control) with 10 mice per group. After 8 weeks consecutive treatment, mice were sacrificed and blood were collected by heart puncture. Serum samples were used for measurements of serum iron and transferrin saturation.

CYP1B1 = CYP1B1 mRNA induction in MCF-12A cells; assay type: cell-based, human; conditions: ferritin at as little as 10 ng/ml
From the text: (§1) It was also investigated whether increased iron as a result of menopause affects estrogen metabolisms. It is known that 95% of serum E2 in premenopausal women is derived from ovarian secretion and subsequently distributed through the bloodstream in an endocrine fashion. Almost all of the circulating E2 in postmenopausal women is from extragonadal conversion of C19 steroid precursors, principally weak adrenal androgens (FIG. 26). The conversion occurs locally in tissues such as adipose and bone marrow and E2 acts in a paracrine fashion. […] The first step in the metabolism of estrogens is the hydroxylation catalyzed by cytochrome P450 enzymes such as CYP1A1 and CYP1B1, leading to the formation of 2-hydroxyl-E2 (2-OH-E2) and 4-OH-E2, respectively (Tsuchiya et al., “Cytochrome P450-mediated Metabolism of Estrogens and Its Regulation In Humans,” Cancer Leu 227, 115-24 (2005), which is hereby incorporated by reference in its entirety).

CYP1A1 = CYP1A1 mRNA induction in MCF-12A cells; assay type: cell-based, human; conditions: ferritin at as little as 10 ng/ml
From the text: as §1

CYP19A1 = CYP19A1 mRNA induction in MCF-12A cells; assay type: cell-based, human; conditions: ferritin at as little as 10 ng/ml
From the text: as §1

Compound: apo-transferrin: transferrin in its wholly unsaturated form, without iron in it
- VEGF formation (MCF-7 cells; various concentrations): no effect

Compound: C[C@]12CC[C@@H]3c4ccc(O)cc4CC[C@H]3[C@@H]1CC[C@@H]2O [E2, 17β-estradiol]
- cell proliferation (C2C12 cells): did not increase
- osteoblast differentiation, as measured by alkaline phosphates activity ([1]; C2C12 cells): slightly stimulated
- VEGF formation (MCF-7 cells; various concentrations): some increase

Compound: Asp-Thr-His-Phe-Pro-Ile-Cys-Ile-Phe-Cys-Cys-Gly-Cys-Cys-His-Arg-Ser-Lys-Cys-Gly-Met-Cys-Cys-Lys-Thr (DTHFPICIFCCGCCHRSKCGMCCKT; listed as Homo sapiens) [human hepcidin]
- fall in serum iron [2]: 70%

Compound: hepcidin: peptide hormone, principal regulator of iron homeostasis; binds ferroportin (DTHFPICIFCCGCCHRSKCGMCCKT; listed as Homo sapiens)
- levels of serum iron [3]: significantly lower
- transferrin saturation [3]: significantly lower

Compound: transferrin: iron transport protein with two binding sites for iron, tested at different iron saturation
- VEGF formation (MCF-7 cells; transferrin 5 μg/ml at various iron saturation levels): no effect

Compound: ferritin
- CYP1B1 mRNA levels (CYP1B1): significantly increased
- CYP1A1 mRNA levels (CYP1A1): significantly increased
- alkaline phosphatase production ([1]; C2C12 cells with BMP-2 at 50 ng/ml, DFO 10 μM, ferritin 20 ng/mL): diminished
- CYP19A1 mRNA levels (CYP19A1): not
- VEGF formation (MCF-7 cells; various concentrations): significantly decreases
